Entries after “also recorded” stand apart in the source; their conditions may differ.
What was measured:
mouse lung = assay: Nebulized FFL mRNA delivery to mice, lung bioluminescence (IVIS); assay type: in vivo, C57BL/6 mice; conditions: for Nebulized lung delivery compared between lipids/NPs: 1 mg dose via nose cone, 6 hr, T1-5 formulated with bPEG20K and NaAc; for In vivo performance via nebulization vs C12-200: 1 mg mRNA dose (FIG. 6A); for Nebulized delivery in NaAc buffer with bPEG20K vs PBS with no excipient: T1-5 LNPs
Description: In vivo nebulized delivery. In vivo nebulized delivery of mRNA to C57BL/6 mice (Jackson Laboratory) was performed either in a whole-body exposure chamber or a nose-only exposure chamber (CH Technologies) where specified. LNPs at 0.3 mg/mL of mRNA were loaded into the nebulizer at required volumes with 2% w/v excipients where specified. For the whole-body exposure chamber, the nebulizer was connected to the chamber via a tee and an oxygen flow rate of 15 SCFH was used to direct aerosol into the chamber. For the nose-only exposure chamber, mice were immobilized in restrainers and the restrainers connected to the chamber. A flow rate of 2 SLPM of oxygen was used and pressure within the chamber was maintained at −0.1 din. H2O.
In vivo bioluminescence, 6 h after nebulization, unless otherwise noted, mice were injected intraperitoneally with 0.2 ml XenoLight D-luciferin (10 mg/mL in DPBS, PerkinElmer). For whole-body imaging, mice were anesthetized in a ventilated anesthesia chamber with 2.5% isofluorane in oxygen and imaged 10 min after luciferin injection. Otherwise, mice were sacrificed 10 min after luciferin injection and organs were collected for imaging. Luminescence was measured with an in vivo imaging system (IVIS, PerkinElmer) and quantified using the Living Image software (PerkinElmer).

[1] = tested on: ALI cultures derived from primary human bronchial epithelial cells; conditions: for mRNA delivery in small and large airway ALI cultures, lipids and tail/headgroup variants: handmixed LNPs, not nebulized; for mRNA delivery to small airway ALI cultures: screen of 12 top-performing A549 LNPs
Description: Air-liquid interface (ALI) cultures derived from primary human bronchial epithelial cells were selected. ALI cultures are grown on porous Transwell inserts such that, upon reaching confluence, media can be removed from the top (apical) side of the insert and the cells can be fed from the bottom, basolateral, side (FIG. 12A). This enables recapitulation of the conditions of the native bronchial epithelium, where the apical side of the cells is exposed to the air while the basolateral side is bathed in nutrients.
Primary large airway cells (University of North Carolina at Chapel Hill MLI Tissue Procurement and Cell Culture Core) and primary small airway cells (ATCC) were expanded using PneumaCult-ExPlus (StemCell) according to the instructions for the media and plated for ALI cultures at P3 and P4 respectively.
ALI cultures were plated either onto 0.4 μm pore, 6.5 mm diameter PET Transwell inserts for 24-well plates (Corning) or 0.4 μm pore polycarbonate inserts for 96-well plates (Corning). The 24-well plates were used for histology, the two-week transfection timecourse, and TEER measurements; 96-well plates were used for all other experiments, 33,000 cells/well were seeded in the 24 well inserts and 15,000 cells/well were seeded in the 96-well plate inserts.
Per manufacturer instructions, cultures were grown to confluence with both apical and basolateral (ExPlus) media for 2-4 days before airlift. […] Upon airlift, apical media was removed and basolateral media was changed to PneumaCult-ALI (for large airway cells) or ALI-S (for small airway cells) media (StemCell). […] Media was changed 3 times/week and cells were not transfected until at least 20 days of ALI culture.
In vitro transfection experiments. […] The next day. […] For ALI cultures.

[2] = Toxicity study after repeat nebulized dosing (weight, serum ALT/AST); assay type: in vivo, mice; conditions: repeated nebulized delivery
Description: (FIG. 6A). […] To determine whether the protein expression in the lung could be controlled by nebulized dose, a dose-response study of the three LNPs was performed, whereby mice were nebulized with 0.25, 0.5, or 1 mg of mRNA. For all three LNPs, there was an increase in lung luminescence corresponding to increasing dose (FIG. 14A). […] For mRNA protein-replacement therapies to treat pulmonary diseases like cystic fibrosis, repeat dosing of the therapeutic will be required unless genome editing is possible. Therefore, the ability to repeat-dose nebulized LNPs was characterized by administration of 1 mg of FFL mRNA every 72 h, with measurement of lung luminescence 6 h after each nebulization. For all LNPs, no loss in lung luminescence was observed over the course of the three administrations (FIG. 6B). Additionally, repeated delivery of the nebulized LNPs was well tolerated as evidenced by the lack of weight loss (FIG. 27) and normal liver enzyme levels (FIG. 14B) in mice.
Toxicity study, 48 h after the third nebulization of FFL mRNA in the repeat dosing study, mice were bled and sera was isolated using microcentrifugation in BD SST microtainers. Serum was analyzed for ALT and AST levels (Custom lipid panel 62149, IDEXX Bioanalytics).

nose = assay: Nebulized FFL mRNA delivery to mice, luminescence in nose; assay type: in vivo
[3] = LNP size by DLS before and after nebulization; assay type: physicochemical; conditions: nebulized in the presence of bPEG20K and NaAc buffer
Description: Nebulization of nanoparticles. For characterizing effects of nebulization on LNP size, encapsulation efficiency, and transfection efficiency, 100 uL of LNPs at 150 ng/uL were loaded into an Aeroneb vibrating mesh nebulizer (Aerogen) and nebulized into 1.5 mL microcentrifuge tubes. Where specified, 2% w/v of excipients were added to the LNP formulation following dialysis and immediately prior to nebulization.

lung epithelium = assay: Nebulized Cre mRNA delivery to Ai14 mice, histology count of tdTomato+ airway cells
A549 cells = assay: In vitro FFL mRNA transfection of A549 cells (Bright-Glo); conditions: microfluidically mixed, nebulized with bPEG20K and NaAc
[4] = nebulized, 1 mg dose, nose cone
[5] = Cre mRNA nebulized over 3 doses
[6] = all cells, Cre mRNA nebulized over 3 doses

Row | SMILES | Nebulized lung delivery compared between lipids/NPs (mouse lung) | In vivo performance via nebulization vs C12-200 (mouse lung) | Nebulized delivery in NaAc buffer with bPEG20K vs PBS with no excipient (mouse lung) | mRNA delivery in small and large airway ALI cultures, lipids and tail/headgroup variants [1] | mRNA delivery to small airway ALI cultures [1] | Tolerability of nebulized LNPs [2] | Protein expression / mRNA delivery in the nose (nose) | Lung luminescence (mouse lung; 6 hr after 1 mg dose via nose cone, lipids T1-5 formulated with bPEG20K and NaAc) | Fold improvement of IR-117-17 lung mRNA delivery over NLD1 (mouse lung; [4]) | Improvement of IR-117-17 lung mRNA delivery over polymeric PBAE nanoparticle (mouse lung; [4]) | Average diameter after nebulization [3] | Small airways with at least 1 transfected cell (lung epithelium; 140/151 airways) | Club cells transfected, large airway (lung epithelium; [5]) | Club cells transfected, small airway (lung epithelium; [5]) | Transfection of large airway cells (average) (lung epithelium; [6]) | Transfection of small airway cells (average) (lung epithelium; [6]) | Transfection of individual stretches of airway (lung epithelium; some stretches) | FFL delivery to A549 cells, post-nebulized LNPs (A549 cells)
1 | CCCCCCCC/C=C\CCCCCCCC(=O)OCCCCCC(O)C(CCCCOC(=O)CCCCCCC/C=C\CCCCCCCC)CN(C)CCCn1cccn1 (stereo not drawn) [IR-19-Py, 5-(((3-(1H-pyrazol-1-yl)propyl)(methyl)amino)methyl)-6-hydroxyundecane-1,11-diyl dioleate] | statistically comparable delivery to C12-200 | performed comparably to C12-200 | improves nebulized delivery of both LNPs compared to PBS | outperformed other screened lipids in ALI cultures | excellent performance | no apparent toxicity | significantly outperform state-of-the-art mRNA delivery formulations; also recorded: particularly high and extended protein expression was observed in the nose |  |  |  |  |  |  |  |  |  |  | 
2 | CCCCC/C=C\C/C=C\CCCCCCCC(=O)OCCCCCC(O)C(CCCCOC(=O)CCCCCCC/C=C\C/C=C\CCCCC)CNCCCN(CCCC)CCCC (stereo not drawn) [IR-117-17, 5-(((3-(dibutylamino)propyl)amino)methyl)-6-hydroxyundecane-1,11-diyl (9Z,9′Z,12Z,12′Z)-bis(octadeca-9,12-dienoate)] | significantly outperform state-of-the-art mRNA delivery formulations; also recorded: significantly outperformed C12-200 | outperformed C12-200 | improves nebulized delivery of both LNPs compared to PBS | outperformed other screened lipids in ALI cultures | excellent performance | no apparent toxicity |  | 1.1×10^6 p s^−1 cm^−2 sr^−1 | 300 fold | twofold; also recorded: two-fold | 116 nm | 93% | 8.4% | 7.6% | 10.3% | 8.8% | near-complete transfection | effective
